Measurements: patent US10131691B2, “Compositions and methods for specific regulation of pyruvate dehydrogenase kinase” (THE BOARD OF TRUSTEES OF THE LELAND STANFORD JUNIOR …, priority 2011, dated 2018)
No end group written: not given here.

Assays:
JNK = JNK phosphorylation in hearts subjected to I/R (Western blot); parameters: species or system rat
Protocol: (§1) An ex vivo model of acute ischemic heart damage was used, which involves a 30 min equilibration period, followed by 30 min of global ischemia, which in turn is followed by 60 min of reperfusion. The hearts were perfused with 1 μM TAT or TAT-conjugated peptide. Normoxic control hearts were subjected to 90 min perfusion in the absence of ischemia. Coronary effluent was collected to determine creatine phosphokinase (CPK) release during the first 30 min of the reperfusion period. At the end of the reperfusion period, hearts were sliced into 1-mm-thick transverse sections and incubated in triphenyltetrazolium chloride solution (TTC, 1% in phosphate buffer, pH 7.4) at 37° C. for 15 min. Infarct size was expressed as a percentage of the risk zone (equivalent to total LV muscle mass) (methods described in Brandman et al., 2007, J. Biol. Chem., 282:4113-4123; Inagaki et al., 2003, Circulation, 108:869-875).
Rat hearts were homogenized in a buffer containing 210 mM mannitol, 70 mM sucrose, 5 mM MOPS and 1 mM EDTA followed by isolation of the mitochondria fraction (described in Churchill et al., 2008, J. Mol. Cell. Cardiol., 46:278-284) and identified by the presence of VDAC (MitoSciences, Eugene, Oreg., USA). The level of phosphorylated and unphosphorylated JNK1/2 was analyzed in the total fraction using respective specific antibodies (Cell Signaling, Danvers, Mass. and Santa Cruz Biotechnology, CA, USA).
(§2) First, I/R-induced infarct size after treatment with ΨPDK or δV1-1 (Inagaki et al., 2003, Circulation, 108:869-875), was smaller than that in hearts treated with the control peptide or with ΨδRACK, the δPKC-specific activator or with δV1-5 (FIG. 6A). Second, similar data were obtained when determining the levels of released creatine phosphokinase (CPK), as a marker of myocardial infarction; CPK levels in the ΨPDK- or δV1-1-treated hearts were similar and were lower than those after treatment with control peptide, ΨδRACK or δV1-5 (FIG. 6B).
(§3) To begin determining the contribution of each of the amino acids on the effect of the peptide, Alanine scanning was used (Brunel et al., 2006, J. Virol., 80:1680-1687; Chen et al., J. Pep. Res., 2000, 56:147-156; Brems et al., 1992, Prot. Eng., 5:527-533) (substituting individual amino acid with an alanine). The resultant ΨPDK peptide analogs were then used in the same model of myocardial infarction, using CPK release and JNK phosphorylation as markers for cardiac injury. CPI release into the perfusates and pJNK in the hearts were determined after I/R in the presence of respective peptides and compared to the levels in hearts subjected to I/R in the presence of the control peptide. None of the peptides having a substitution had any significant biological activity (Table 1).

[1] = system: fibroblasts derived from δPKC knock-out mice; assay: MARCKS phosphorylation in fibroblasts from δPKC knock-out mice; assay type: cell-based, mouse; settings: fibroblasts lacking δPKC
Description: Fibroblasts were isolated from wild-type or δPKC knockout mice (provided by Dr. Robert Messing, Gallo Center, UCSF) as previously described (Disatnik et al., 2004, J. Cell Sci., 117:4469-4479) and maintained in 20% fetal bovine serum.
Phosphorylation of myristoylated alanine-rich C kinase substrate (MARCKS), a ubiquitous PKC substrate, was monitored by Western blot of total cell lysates, using anti-phosphorylated MARCKS (Cell Signaling, Danvers, Mass.). Anti-MARCKS and anti-δPKC antibodies were obtained from Santa Cruz Biotechnology (Santa Cruz Biotechnology, CA, USA).
The ΨPDK sequence is found both in PDK and in the PDK-cognate protein, δPKC. It was therefore predicted that ΨPDK mimics inhibitory intra-molecular interaction, and, similar to ΨδRACK, ΨPDK should compete with the inhibitory interaction of PDK and δPKC, and increase δPKC-mediated functions (FIG. 1A). Phosphorylation of myristoylated alanine-rich C-kinase substrate (MARCKS) was used as a marker of PKC activity (Disatnik et al., 2004, J. Cell. Sci., 117:4469-4479). […] To determine the selectivity of the peptides for δPKC, fibroblasts derived from δPKC knock-out mice were also used.

PDK2 = assay: 2-D IEF phosphorylation of PDK2 in hearts after I/R; parameters: species or system rat; settings: cardiac I/R
Protocol: as §1, with “108:869-875). […]” for “108:869-875).”
As described above, δPKC phosphorylation of PDK following cardiac ischemia and reperfusion leads to the phosphorylation and a decline in the activity of pyruvate dehydrogenase (PDH) (Churchill et al., 2005, Circ. Res., 97:78-85). […] Since ΨPDK is derived from the PDK homologous sequence in δPKC, it was next determined whether PDK phosphorylation is affected by ΨPDK treatment.

hearts subjected to I/R = assay: Ex vivo cardiac protection from ischemia/reperfusion (Langendorff; infarct size, CPK release); parameters: species or system rat
Protocol: as §1, with “108:869-875). […]” for “108:869-875).”
as §2, §3

[2] = ex vivo I/R, vs control peptide, ΨδRACK or δV1-5

## ALSTER (not fully specified (C-terminus); also: TAT47-57 conjugated via disulfide) [ΨPDK, for cells and hearts conjugated to TAT47-57 via disulfide bond]
JNK; ex vivo I/R hearts, 1 μM peptide
  p-JNK/total JNK: 0.4 ± 0.10
JNK; ex vivo I/R, vs δV1-5 and ΨδRACK
  I/R-induced JNK phosphorylation (in words): reduced I/R-induced JNK phosphorylation
[1]
  MARCKS phosphorylation: did not affect MARCKS phosphorylation
PDK2
  phosphorylation of PDK2: did not occur
Hearts subjected to I/R; CPK release and JNK phosphorylation as markers
  cardioprotection / biological activity in ex vivo I/R model (in words): exert cardio-protective effects
Hearts subjected to I/R; ex vivo I/R, release into perfusate, 1 μM peptide
  CPK (u/L): 335 ± 520 u/L
Hearts subjected to I/R; [2]
  CPK levels (in words): lower
  I/R-induced infarct size: smaller
